The LC50 is the concentration that kills 50% of the test population. Low values mean a more lethal substance, high ones a less lethal substance. Broadly, the zone of inhibition is the size of the clear area around the sample on an inoculated plate.

We go through ten compounds from article PMC9503977, “Isolation, Characterization and Pharmacological Investigations of a New Phenolic Compound along with Four Others Firstly Reported Phytochemicals from Glycosmis cyanocarpa (Blume) Spreng” (Molecules, 2022).

A short description of data set [1]: Brine shrimp lethality bioassay (cytotoxicity). The note with it: in vivo, other: exposure of nauplii in simulated seawater, pH 8, from linear regression, 400–0.78125 μg/mL. As for the experimental part:
The brine shrimp lethality bioassay was conducted to evaluate the cytotoxic potential of the isolated pure compounds. An amount of 38 g of NaCl salt was dissolved in 1000 mL of distilled water to simulate seawater, along with NaOH to keep the pH constant (8.0). Brine shrimp eggs were hatched in artificial seawater to produce nauplii. Isolated compounds were dissolved in DMSO then diluted with simulated seawater into a series of concentrations (400–0.78125 μg/mL). As the reference standard, vincristine sulfate was employed at various doses (400–0.78125 μg/mL), and DMSO served as the negative control. The nauplii were counted visually, and then 5 mL of simulated saltwater was added to vials of the mixture at room temperature. (2) Mortality%=Number of nauplii death/Number of nauplii taken×100

Data set [2] in a line: DPPH free radical scavenging assay. The class given is biochemical. The conditions noted are these: for DPPH scavenging activity: at 200 μg/mL; for IC50, DPPH free radical scavenging: from linear regression equation, 200 to 0.78125 μg/mL, 1 h in dark. The protocol:
To evaluate the free radical scavenging abilities of isolated phytochemicals on 1, 1-diphenyl-2-picrylhydrazyl, 2.0 mL of methanol solution of the compounds at serially diluted various concentrations (200 μg/mL to 0.78125 μg/mL) were mixed with 3.0 mL of a DPPH methanol solution (20 μg/mL) (DPPH). The mixture was kept in dark for 1 h. The antioxidant properties were assessed by comparing the decolorizing of a purple DPPH methanol solution by the compounds to that of butylated hydroxy anisole (BHA). (1) % Inhibition of free radical DPPH=1−Absorbance ofsample/Absorbance of the control reaction×100

The test system of data set [3] is Sarcina lutea. In words: Disc diffusion antibacterial assay. The note with it: Micrococcus luteus, read-out: Diameter of Zone of Inhibition.
The test system of data set [4] is Salmonella typhi. In words: Disc diffusion antibacterial assay. The format is cell-based. The note with it: Salmonella enterica, read-out: Diameter of Zone of Inhibition.
Data set [5] concerns Escherichia coli. The experiment in a line: Disc diffusion antibacterial assay. The conditions noted are these: read-out: Diameter of Zone of Inhibition.
Data set [6] deals with two Gram-positive and four Gram-negative bacteria. The experiment in a line: Disc diffusion antibacterial assay, whole panel. The note with it: 100 μg/disc. The format is cell-based. A general note: A growth-free zone around the sample is the usual read-out of agar diffusion tests.
Data set [7] deals with Staphylococcus aureus. In words: Disc diffusion antibacterial assay. The note with it: read-out: Diameter of Zone of Inhibition.
Data set [8] concerns Klebsiella spp. In words: Disc diffusion antibacterial assay. The conditions noted are these: read-out: Diameter of Zone of Inhibition.
For data set [9], the system named is Shigella flexneri. The experiment in a line: microbe, parasite or virus in culture. The note with it: read-out: Diameter of Zone of Inhibition.

≈ marks a conversion by molar mass, not a printed value. Entries after “also recorded” stand apart in the source; their conditions may differ.

Compound `CC[C@]1(O)C[C@H]2CN(CCc3c([nH]c4ccccc34)[C@@](C(=O)OC)(c3cc4c(cc3OC)N(C=O)[C@H]3[C@@](O)(C(=O)OC)[C@H](OC(C)=O)[C@]5(CC)C=CCN6CC[C@]43[C@@H]65)C2)C1` [VS, Vincristine Sulphate] gave a median lethal concentration (LC50) in data set [1] of 0.91 µg/mL.

Turning to `Cc1cc(C(C)(C)C)c(O)c(C(C)(C)C)c1` [BHT, Butylated Hydroxytoluene], in data set [2], the DPPH scavenging activity is given as 96.48% and the “IC50, DPPH free radical scavenging” value is recorded as 6.06 µg/mL (≈ 27.5 µM).

As for `COc1cc(CC(C)CO)ccc1O` (stereo not drawn) [Compound 1, 4-(3-hydroxy-2-methylpropyl)-2-methoxyphenol], the DPPH scavenging activity in data set [2] came to 92.96%. The “IC50, DPPH free radical scavenging” value in [2] was 9.97 µg/mL (≈ 50.8 µM). Also, the zone of inhibition at 100 µg/disc is 20 mm in data set [3], 18 mm in data set [4], 19 mm in data set [5] and 21 mm in [7]. The same compound yielded an LC50 in data set [1] of 1.08 µg/mL (≈ 5.5 µM). The “antibacterial spectrum (in words)” value in data set [6] was “broad-spectrum antibacterial activity”.

Take `CC[C@H]1OC(=O)[C@H](C)[C@@H](O[C@H]2C[C@@](C)(OC)[C@@H](O)[C@H](C)O2)[C@H](C)[C@@H](O[C@@H]2O[C@H](C)C[C@H](N(C)C)[C@H]2O)[C@](C)(O)C[C@@H](C)CN(C)[C@H](C)[C@@H](O)[C@]1(C)O` [Azithromycin]: the zone of inhibition at 100 µg/disc in data set [8] amounted to 37 mm; in [3], 40 mm; in [4], 34 mm; in data set [5] it was 40 mm; in data set [7], 39 mm; in data set [9] it was 41 mm.

With `C[C@H]1COc2c(N3CCN(C)CC3)c(F)cc3c(=O)c(C(=O)O)cn1c23` [Levofloxacin], the zone of inhibition at 100 µg/disc in [8] came to 38 mm; in data set [3] it was 39 mm; in data set [4] it was 36 mm; in [5], 42 mm; in [7], 40 mm; in data set [9], 41 mm.

With `CN[C@H](CC(C)C)C(=O)N[C@H]1C(=O)N[C@@H](CC(N)=O)C(=O)N[C@H]2C(=O)N[C@H]3C(=O)N[C@H](C(=O)N[C@H](C(=O)O)c4cc(O)cc(O)c4-c4cc3ccc4O)[C@H](O)c3ccc(c(Cl)c3)Oc3cc2cc(c3O[C@@H]2O[C@H](CO)[C@@H](O)[C@H](O)[C@H]2O[C@H]2C[C@](C)(N)[C@H](O)[C@H](C)O2)Oc2ccc(cc2Cl)[C@H]1O` [Vancomycin], the zone of inhibition at 100 µg/disc in data set [8] came to 43 mm; in [3], 42 mm; in data set [4] it was 39 mm; in data set [5] it was 42 mm; in data set [7] it was 41 mm; in [9], 38 mm.

Turning to `CN(C)[C@@H]1C(O)=C(C(N)=O)C(=O)[C@@]2(O)C(O)=C3C(=O)c4c(O)cccc4[C@@](C)(O)[C@H]3C[C@@H]12` [Tetracycline], the zone of inhibition at 100 µg/disc in [8] came out at 39 mm; in data set [3] it was 38 mm; in data set [4], 41 mm; in [5], 41 mm; in data set [7], 37 mm; in [9], 38 mm.

As to `CC[C@H](CC[C@@H](C)[C@H]1CC[C@H]2[C@@H]3CC=C4C[C@@H](O)CC[C@]4(C)[C@H]3CC[C@]12C)C(C)C` [Compound 5, β-sitosterol], the results for the zone of inhibition at 100 µg/disc in data set [3] and in data set [7] were 15 mm and 17 mm, respectively. The compound also showed an LC50 in [1] of 1.37 µg/mL (≈ 3.3 µM). Also, the “antibacterial spectrum (in words)” value in data set [6] is listed as “inhibited only Gram-positive bacteria”.

Turning to `CC[C@H](/C=C/[C@@H](C)[C@H]1CC[C@H]2[C@@H]3CC=C4C[C@@H](O)CC[C@]4(C)[C@H]3CC[C@]12C)C(C)C` [Compound 4, Stigmasterol], the zone of inhibition at 100 µg/disc came out at 17 mm in [3] and 16 mm in data set [7]. Further, in [1], the LC50 was 1.92 µg/mL (≈ 4.65 µM). For the same compound, in data set [6], the “antibacterial spectrum (in words)” value is “inhibited only Gram-positive bacteria”.

Consider `Cc1c[nH]c2ccccc12` [Compound 2, 3-methyl-1H-indole], for which the “IC50, DPPH free radical scavenging” value in data set [2] came to 12.37 µg/mL (≈ 94.3 µM). For the same compound, the zone of inhibition at 100 µg/disc is 19 mm in data set [3] and 17 mm in data set [7]. This compound also displayed an LC50 in data set [1] of 1.02 µg/mL (≈ 7.78 µM). Further, the “antibacterial spectrum (in words)” value in data set [6] is on record as “the most active against Staphylococcus aureus; also recorded: inhibited only Gram-positive bacteria”.
